Data: patent US7947626B2 (priority 2006, dated 2011)

What was measured:
[1] = system: passaged cortical stem and progenitor cell derived neural networks; assay type: cell-based, rat
[2] = system: primary cortical stem cell and progenitor cell derived neural networks; assay type: cell-based, rat

With `NC(CCCP(=O)(O)O)C(=O)O` (racemic) [APV, DL-2-amino-5-phosphonovaleric acid] the “mean spike rate (MSR) response of the network” value (from here on “mean spike rate (MSR) response”) [1] was “decrease in MSR”, the “raw action potential spike activity, single channel 10 second trace” value [1] was “incremental effects of APV on both spike rate and burst pattern” and the “mean spike rate (MSR) response” value [2] was “No additional decrease in network activity”.
For `N#Cc1cc2c(cc1[N+](=O)[O-])=NC(=O)C(=O)N=2` [CNQX, 6-cyano-7-nitroquinoxaline-2,3-dione], the “mean spike rate (MSR) response” value [1] was “further decrease in activity”, the “raw action potential spike activity, single channel 10 second trace” value [1] was “near total blockade of action potentials” and the “mean spike rate (MSR) response” value [2] was “decrease in MSR”.
With cadmium chloride the “mean spike rate (MSR) response” value [1] was “responsive”.
